Assay results: PubChem BioAssay AID2060624 (Molecular Pharmacology Branch, DTP, NCI, 2025)
pIC50: −log10 of the molar value.

Tested on: 217524-143-R1-J4-PDC spheroids with HUVEC/MSC, viability
Assay: Anticancer human tumor 217524-143-R1-J4-PDC patient-derived pancreatic carcinoma cell line growth inhibition [CLK]
Details: for pIC50: curve of first compound; for viability, T/C: stronger effect = lower value; active means viability on the fitted dose curve at most 10% of control; inactive means the rest
Procedure, shortened: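 Patient-derived tumor cells grown as complex spheroids with HUVEC endothelial cells and mesenchymal stem cells, treated with drug combinations. Concentrations descend in half-log steps from near clinical Cmax, or from 10 microM if Cmax unknown.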

[1] = second compound 0.0316 µM, first compound 0.0316 µM
[2] = second compound 0.0316 µM, first compound 0.1 µM
[3] = second compound 0.0316 µM, first compound 0.316 µM
[4] = second compound 0.0316 µM, first compound 1 µM
[5] = second compound 0.0316 µM, first compound 3.16 µM
[6] = second compound 0.0316 µM, first compound 10 µM
[7] = second compound 0.1 µM, first compound 0.0316 µM
[8] = second compound 0.1 µM, first compound 0.1 µM
[9] = second compound 0.1 µM, first compound 0.316 µM
[10] = second compound 0.1 µM, first compound 1 µM
[11] = second compound 0.1 µM, first compound 3.16 µM
[12] = second compound 0.1 µM, first compound 10 µM
[13] = second compound 0.316 µM, first compound 0.0316 µM
[14] = second compound 0.316 µM, first compound 0.1 µM
[15] = second compound 0.316 µM, first compound 0.316 µM
[16] = second compound 0.316 µM, first compound 1 µM
[17] = second compound 0.316 µM, first compound 3.16 µM
[18] = second compound 0.316 µM, first compound 10 µM
[19] = second compound 1 µM, first compound 0.0316 µM
[20] = second compound 1 µM, first compound 0.1 µM
[21] = second compound 1 µM, first compound 0.316 µM
[22] = second compound 1 µM, first compound 1 µM
[23] = second compound 1 µM, first compound 3.16 µM
[24] = second compound 1 µM, first compound 10 µM
[25] = second compound 3.16 µM, first compound 0.0316 µM
[26] = second compound 3.16 µM, first compound 0.1 µM
[27] = second compound 3.16 µM, first compound 0.316 µM
[28] = second compound 3.16 µM, first compound 1 µM
[29] = second compound 3.16 µM, first compound 3.16 µM
[30] = second compound 3.16 µM, first compound 10 µM
[31] = second compound 10 µM, first compound 0.0316 µM
[32] = second compound 10 µM, first compound 0.1 µM
[33] = second compound 10 µM, first compound 0.316 µM
[34] = second compound 10 µM, first compound 1 µM
[35] = second compound 10 µM, first compound 3.16 µM
[36] = second compound 10 µM, first compound 10 µM
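Further: spheroids exposed to agents for seven days before reading.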
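Wherever viability, T/C is given: 100% = DMSO vehicle control viability.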

COc1ccc([C@@H](O)c2cc(-c3ncnc4cc(N5CCOCC5)ccc34)c(F)cc2Cl)nn1 + CNC(=O)c1ccc(Nc2nc(OC3CCCC3)c3c(-c4ccc5nc(C)oc5c4)c[nH]c3n2)c(OC)c1
inactive: viability, T/C [1] 95.4% | viability, T/C [2] 72% | viability, T/C [3] 66% | viability, T/C [4] 50.4% | viability, T/C [5] 27.6% | viability, T/C [6] 10.6% | viability, T/C [7] 43.1% | viability, T/C [8] 34.6% | viability, T/C [9] 32% | viability, T/C [10] 27.9% | viability, T/C [11] 19.3% | viability, T/C [12] 9.43% | viability, T/C [13] 39.8% | viability, T/C [14] 28.4% | viability, T/C [15] 27.4% | viability, T/C [16] 20.8% | viability, T/C [17] 13.3% | viability, T/C [19] 32% | viability, T/C [20] 22.9% | viability, T/C [21] 23.3% | viability, T/C [22] 13.6% | viability, T/C [23] 11.8% | viability, T/C [25] 25.6% | viability, T/C [26] 27% | viability, T/C [27] 20.2% | viability, T/C [28] 16.9% | viability, T/C [29] 10.3% | viability, T/C [31] 24.8% | viability, T/C [32] 23.6% | viability, T/C [33] 20.7% | viability, T/C [34] 13.8% | viability, T/C [35] 9.68%
> 7.50: pIC50 (second compound 0.1 µM) | pIC50 (second compound 0.316 µM) | pIC50 (second compound 1 µM) | pIC50 (second compound 3.16 µM) | pIC50 (second compound 10 µM)
active: viability, T/C [18] 7.35% | viability, T/C [24] 5.29% | viability, T/C [30] 4.64% | viability, T/C [36] 5.01%
6.09: pIC50 (second compound 0.0316 µM)

COc1cccc2c1C(=O)c1c(O)c3c(c(O)c1C2=O)CC(O)(C(=O)CO)CC3OC1CC(N)C(O)C(C)O1 (centres undefined) + CNC(=O)c1ccc(Nc2nc(OC3CCCC3)c3c(-c4ccc5nc(C)oc5c4)c[nH]c3n2)c(OC)c1
inactive: viability, T/C [1] 32.9% | viability, T/C [2] 32.3% | viability, T/C [3] 25.3% | viability, T/C [4] 17.2% | viability, T/C [7] 38.2% | viability, T/C [8] 33.7% | viability, T/C [9] 23% | viability, T/C [10] 18.9% | viability, T/C [13] 32.2% | viability, T/C [14] 28.5% | viability, T/C [15] 16.5% | viability, T/C [16] 12.8% | viability, T/C [19] 25.2% | viability, T/C [20] 18.7% | viability, T/C [21] 11.8% | viability, T/C [25] 18.7% | viability, T/C [26] 16% | viability, T/C [27] 13% | viability, T/C [31] 22.2% | viability, T/C [32] 14.7% | viability, T/C [33] 10.7%
active: viability, T/C [5] 3.45% | viability, T/C [6] 0.92% | viability, T/C [11] 2.48% | viability, T/C [12] 1.28% | viability, T/C [17] 2.83% | viability, T/C [18] 0.97% | viability, T/C [22] 7.57% | viability, T/C [23] 1.43% | viability, T/C [24] 0.99% | viability, T/C [28] 6.9% | viability, T/C [29] 0.62% | viability, T/C [30] 1.17% | viability, T/C [34] 6.9% | viability, T/C [35] 0.98% | viability, T/C [36] 1.5%
> 7.50: pIC50 (second compound 0.0316 µM) | pIC50 (second compound 0.1 µM) | pIC50 (second compound 0.316 µM) | pIC50 (second compound 1 µM) | pIC50 (second compound 3.16 µM) | pIC50 (second compound 10 µM)
